From publication PMC12921516 (ACS Bio & Med Chem Au, 2025)

What was measured:
[1] = molecular target: T1, hPTP1B1–400 (Homo sapiens, UniProt P18031); experiment: PTP1B inhibition, pNPP hydrolysis, long form; assay type: biochemical; details: pNPP substrate, 15 min 37 °C, pH 6.8; ± S.D
T1 construct: h PTP1B 1–400 IC 50 (μM ± S.D); made in house
T1 sequence (P18031 1-400): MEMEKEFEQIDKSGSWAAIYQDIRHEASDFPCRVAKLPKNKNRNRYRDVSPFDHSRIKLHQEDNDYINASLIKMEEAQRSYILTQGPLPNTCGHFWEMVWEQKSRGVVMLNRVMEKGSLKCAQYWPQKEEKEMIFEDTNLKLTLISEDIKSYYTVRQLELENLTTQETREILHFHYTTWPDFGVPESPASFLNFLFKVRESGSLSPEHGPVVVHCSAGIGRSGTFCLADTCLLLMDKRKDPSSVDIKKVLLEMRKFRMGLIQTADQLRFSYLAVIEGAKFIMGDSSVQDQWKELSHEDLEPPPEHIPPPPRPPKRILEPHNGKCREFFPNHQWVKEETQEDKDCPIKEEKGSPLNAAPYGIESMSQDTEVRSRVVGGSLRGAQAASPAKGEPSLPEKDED

[2] = Cytotoxicity, Sulforhodamine B assay; assay type: cell-based, human; details: human, HFF-1 normal foreskin fibroblast cells; HFF-1 proliferation, 48-h incubation, 0.78 μM to 100 μM
Description: Given the significance of a drug candidate’s toxicity in relation to its inhibition potential, a cytotoxicity assay was conducted using Normal Human Foreskin Fibroblasts (HFF-1).
All assays were carried out in triplicate. Cell proliferation was determined by the Sulforhodamine B assay, and the half-maximal cytotoxic concentration (CC50) was determined by Probit analysis.

[3] = molecular target: T2, hPTP1B1–285 (Homo sapiens, UniProt P18031); experiment: PTP1B inhibition, pNPP hydrolysis, short form; assay type: biochemical; details: pNPP substrate; ± S.D
T2 construct: h PTP1B 1–285 IC 50 (μM ± S.D); made in house
T2 sequence (P18031 1-285): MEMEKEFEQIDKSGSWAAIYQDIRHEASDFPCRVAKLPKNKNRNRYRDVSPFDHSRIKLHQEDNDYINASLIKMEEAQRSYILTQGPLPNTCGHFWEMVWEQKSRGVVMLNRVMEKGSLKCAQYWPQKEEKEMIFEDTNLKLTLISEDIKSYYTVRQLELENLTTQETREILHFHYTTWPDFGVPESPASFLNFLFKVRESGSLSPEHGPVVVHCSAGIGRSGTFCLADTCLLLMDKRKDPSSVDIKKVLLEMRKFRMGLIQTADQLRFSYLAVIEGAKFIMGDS
Description: In contrast to analogous regions in other PTP family proteins, the intrinsically disordered C-terminal domain of PTP1B (residues 301–400) contains two α-helices, α8′ (residues 320–327) and α9′ (residues 360–377), which may act as binding sites for various compounds.
(§1) Aliquots of 0–10 μL of the test compounds (triplicate) were taken and incubated for 15 min at 37 °C with 85 μL of Tris buffer solution (50 mM, pH 6.8) containing PTP1B enzyme and 5 μL of p-nitrophenyl phosphate substrate (pNPP, 10 mM). The absorbance of the hydrolysis product, p-nitrophenol (pNP), was measured at 405 nm using a 96-microplate absorbance reader (Accuris SmartReader 96). The inhibitory activity was determined according to eq . %enzyme=(A405b/A405c)×100 1 Where: % enzyme is the percentage of inhibition for PTP1B or TCPTP
(§2) The IC50 was calculated using regression analysis, eq : %inhibition=A100/1+(I/IC50)^s 2 Where: A100: Maximum inhibition

[4] = molecular target: T1, hPTP1B1–400; experiment: Enzymatic kinetics studies (Lineweaver–Burk, model fitting); assay type: biochemical; details: for inhibition type: hPTP1B1–400, best fit model; for Ki: hPTP1B1–400, pNPP 0.1–0.5 mM; for Km / Vmax: hPTP1B1–400 with inhibitor
Description: Kinetic analyses were conducted using varying concentrations of substrate and inhibitor.
Five increasing concentrations of each inhibitor were tested, according to their previously determined IC50 values. The negative control was prepared by omitting the inhibitor in the presence of the enzyme and substrate. The Supporting Information includes detailed eqs (E1–E5) used to determine the kinetic parameters and mechanisms involved in PTP1B inhibition.
Equation 1 was used to obtain enzyme kinetic parameters by fitting data to the Michaelis-Menten model (Origin Pro
The equations defined for the following non-linear inhibition models were used to determine the mechanism of
PTP1B inhibition: competitive (E2), non-competitive (E3), uncompetitive (E4), and mixed (E5) (Origin Pro 2018 (64
(1+ ( ))(x05nh ) + (1+ ( )) (x05 nh)
Vmax is the maximum velocity, x is the substrate concentration, i is the inhibitor concentration, nh is the number of
Hill. Ki is the inhibition constant, and Km is the Michaelis constant.

[5] = molecular target: T3, hTCPTP1–415 (Homo sapiens, UniProt P17706); experiment: TCPTP inhibitory activity; assay type: biochemical; details: pNPP substrate; tested up to 100 μM
T3 construct: h TCPTP 1–415 IC 50 (μM ± S.D); made in house
T3 sequence (P17706 1-415): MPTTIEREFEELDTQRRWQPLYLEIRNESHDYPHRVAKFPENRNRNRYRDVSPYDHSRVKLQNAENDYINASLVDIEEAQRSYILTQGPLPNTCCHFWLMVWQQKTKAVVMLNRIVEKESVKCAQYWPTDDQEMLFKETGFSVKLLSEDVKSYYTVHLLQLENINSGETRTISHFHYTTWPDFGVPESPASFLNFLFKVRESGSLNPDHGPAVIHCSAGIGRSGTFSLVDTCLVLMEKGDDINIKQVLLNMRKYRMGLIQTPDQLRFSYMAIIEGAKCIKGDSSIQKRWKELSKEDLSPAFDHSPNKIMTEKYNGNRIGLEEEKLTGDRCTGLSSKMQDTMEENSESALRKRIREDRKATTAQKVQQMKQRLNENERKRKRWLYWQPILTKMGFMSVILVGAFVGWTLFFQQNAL
Description: The effectiveness and safety of a PTP1B inhibitor primarily depend on its selectivity, given that protein tyrosine phosphatases share significant structural homology within their catalytic domains. […] Ertiprotafib was also included in this study.
as §1, §2

IC50 [1] [µM] | IC50 [3] [µM] | inhibition type [4] | Ki [4] [µM] | Km [4] [µM] | Vmax [4] [mM/min] | IC50 [5] [µM] | SMILES | CC50 at 48 h [2] [µM]
1.58 ± 0.07 | 7.03 ± 0.28 | uncompetitive | 0.32 ± 0.05 | 760 ± 170 | 1.24 ± 0.18 | > 100 | CC1(C)c2[nH]c3ccc(OC(F)F)cc3c2C[C@]2(C)[C@H]3C(=O)C=C4[C@@H]5C[C@@](C)(C(=O)O)CC[C@]5(C)CC[C@@]4(C)[C@]3(C)CC[C@@H]12 [compound 4b, (20β)-5′-(Difluoromethoxy)-11-oxo-1′H-oleana-2,12-dieno[3,2-b]indol-29-oic Acid] | 98.7 ± 2
2.06 ± 0.12 | 9.11 ± 0.58 | uncompetitive | 1.62 ± 0.19 | 870 ± 130 | 1.46 ± 0.15 | > 100 | CC1(C)c2[nH]c3ccc(S(N)(=O)=O)cc3c2C[C@]2(C)[C@H]3C(=O)C=C4[C@@H]5C[C@@](C)(C(=O)O)CC[C@]5(C)CC[C@@]4(C)[C@]3(C)CC[C@@H]12 [compound 4g, (20β)-5′-Sulfamoyl-11-oxo-1′H-oleana-2,12-dieno[3,2-b]indol-29-oic Acid] | > 100
1.48 ± 0.18 | 5.51 ± 0.16 | uncompetitive | 0.72 ± 0.12 | 970 ± 200 | 1.34 ± 0.21 | > 100 | CC1(C)c2c(cnn2-c2ccc(S(N)(=O)=O)cc2)C[C@]2(C)[C@H]3C(=O)C=C4[C@@H]5C[C@@](C)(C(=O)O)CC[C@]5(C)CC[C@@]4(C)[C@]3(C)CC[C@@H]12 [compound 5g, (20β)-11-Oxo-2′-(4-sulfamoylphenyl)-2′H-oleana-2,12-dieno[3,2-c]pyrazol-29-oic Acid] | > 100
